The text below walks through data of PubChem BioAssay AID248 (DTP/NCI, 2004).

The subject of the experiment is L1210 leukemia ip in BDF1 mice, survival T/C. The experiment in a line: NCI In Vivo Anticancer Drug Screen. Data for tumor model L1210 Leukemia (intraperitoneal) in B6D2F1 (BDF1) mice. Conditions: higher = longer survival. In a few lines: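 Ratio derived from survival: compound-dosed mice over vehicle-dosed mice, all bearing a transplantable tumor.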
[1] abbreviates: endpoint: mean survival time, dose: 100.0 mg/kg/injection, schedule: Q01DX001 (ip), vehicle: carboxymethylcellulose (CMC).
The mark [2] stands for this setting: endpoint: mean survival time, dose: 200.0 mg/kg/injection, schedule: Q01DX001 (ip), vehicle: carboxymethylcellulose (CMC).
Where [3] appears, read: endpoint: mean survival time, dose: 400.0 mg/kg/injection, schedule: Q01DX001 (ip), vehicle: carboxymethylcellulose (CMC).
The mark [4] stands for this setting: endpoint: mean survival time, dose: 100.0 mg/kg/injection, schedule: Q01DX009 (ip), vehicle: Klucel (hydroxypropylcellulose) (HPC).
Where [5] appears, read: endpoint: mean survival time, dose: 100.0 mg/kg/injection, schedule: Q04DX003 (ip), vehicle: Klucel (hydroxypropylcellulose) (HPC).
The mark [6] stands for this setting: endpoint: mean survival time, dose: 200.0 mg/kg/injection, schedule: Q01DX009 (ip), vehicle: Klucel (hydroxypropylcellulose) (HPC).
[7] abbreviates: endpoint: mean survival time, dose: 200.0 mg/kg/injection, schedule: Q04DX003 (ip), vehicle: Klucel (hydroxypropylcellulose) (HPC).
Setting [8] is: endpoint: mean survival time, dose: 400.0 mg/kg/injection, schedule: Q01DX009 (ip), vehicle: Klucel (hydroxypropylcellulose) (HPC).
Where [9] appears, read: endpoint: mean survival time, dose: 400.0 mg/kg/injection, schedule: Q04DX003 (ip), vehicle: Klucel (hydroxypropylcellulose) (HPC).
[10] abbreviates: endpoint: mean survival time, dose: 25.0 mg/kg/injection, schedule: Q01DX009 (ip), vehicle: Klucel (hydroxypropylcellulose) (HPC).
Where [11] appears, read: endpoint: mean survival time, dose: 50.0 mg/kg/injection, schedule: Q01DX009 (ip), vehicle: Klucel (hydroxypropylcellulose) (HPC).
[12] abbreviates: endpoint: mean survival time, dose: 100.0 mg/kg/injection, schedule: Q01DX009 (ip), vehicle: saline with Tween-80.
The mark [13] stands for this setting: endpoint: mean survival time, dose: 100.0 mg/kg/injection, schedule: Q04DX003 (ip), vehicle: saline with Tween-80.
Setting [14] is: endpoint: mean survival time, dose: 200.0 mg/kg/injection, schedule: Q01DX009 (ip), vehicle: saline with Tween-80.
[15] abbreviates: endpoint: mean survival time, dose: 200.0 mg/kg/injection, schedule: Q04DX003 (ip), vehicle: saline with Tween-80.
The mark [16] stands for this setting: endpoint: mean survival time, dose: 400.0 mg/kg/injection, schedule: Q01DX009 (ip), vehicle: saline with Tween-80.
[17] abbreviates: endpoint: mean survival time, dose: 400.0 mg/kg/injection, schedule: Q04DX003 (ip), vehicle: saline with Tween-80.

“And” between values parts separate entries of the source, which are not always exact repeats. Equal entries are not always repeated. Toxic doses and inconclusive results are not listed.

Take `Nc1c(Br)c(Cl)cc2c1-c1ccc(Cl)cc1C2S` (configuration not stated): the T/C was 104 % of control under setting [1], 95 % of control under setting [2] and 90 % of control under setting [3].

Regarding `Cc1ccc(-n2cccc2)cc1`, the T/C was 90 % of control (endpoint: mean survival time, dose: 50.0 mg/kg/injection, schedule: Q04DX002 (ip), vehicle: Klucel (hydroxypropylcellulose) (HPC)); 93 % of control and 90 % of control (endpoint: mean survival time, dose: 100.0 mg/kg/injection, schedule: Q04DX002 (ip), vehicle: Klucel (hydroxypropylcellulose) (HPC)); 90 % of control (endpoint: mean survival time, dose: 200.0 mg/kg/injection, schedule: Q04DX002 (ip), vehicle: Klucel (hydroxypropylcellulose) (HPC)); 106 % of control (endpoint: mean survival time, dose: 400.0 mg/kg/injection, schedule: Q04DX002 (ip), vehicle: Klucel (hydroxypropylcellulose) (HPC)).

Turning to `CCSc1nc(=S)cc(C)[nH]1`, the T/C reads like this: under setting [4], 96 % of control; under setting [5], 103 % of control; under setting [6], 91 % of control; under setting [7], 98 % of control; under setting [8], 90 % of control; under setting [9], 87 % of control.

For `S=C(S)Nc1cccc2ccccc12`, the T/C (endpoint: mean survival time, dose: 12.5 mg/kg/injection, schedule: Q01DX009 (ip), vehicle: Klucel (hydroxypropylcellulose) (HPC)) was 103 % of control; the T/C (endpoint: mean survival time, dose: 12.5 mg/kg/injection, schedule: Q04DX003 (ip), vehicle: Klucel (hydroxypropylcellulose) (HPC)) is 100 % of control; the T/C under setting [10] was 98 % of control; the T/C (endpoint: mean survival time, dose: 25.0 mg/kg/injection, schedule: Q04DX003 (ip), vehicle: Klucel (hydroxypropylcellulose) (HPC)) is 94 % of control; the T/C under setting [11] is 92 % of control; the T/C (endpoint: mean survival time, dose: 50.0 mg/kg/injection, schedule: Q04DX003 (ip), vehicle: Klucel (hydroxypropylcellulose) (HPC)) is 100 % of control. For the same compound, the T/C reads like this: under setting [4], 94 % of control; under setting [12], 89 % of control; under setting [5], 98 % of control; under setting [13], 93 % of control and 86 % of control; under setting [6], 94 % of control; under setting [14], 88 % of control. The T/C runs as follows: under setting [7], 96 % of control; under setting [15], 95 % of control and 86 % of control; under setting [8], 99 % of control; under setting [16], 104 % of control; under setting [9], 91 % of control; under setting [17], 101 % of control and 86 % of control.

On to `CCOC(=O)c1cnc(SC)nc1NNc1ccc([N+](=O)[O-])cc1`, for which the T/C runs as follows: (endpoint: mean survival time, dose: 100.0 mg/kg/injection, schedule: Q01DX001 (ip), vehicle: saline with Tween-80) 90 % of control; (endpoint: mean survival time, dose: 200.0 mg/kg/injection, schedule: Q01DX001 (ip), vehicle: saline with Tween-80) 92 % of control.

Turning to `c1coc(CNc2cc(NCc3ccco3)ncn2)c1`, the T/C was 98 % of control under setting [4] and 95 % of control under setting [6].

For `O=c1[nH]nc(Br)c(=O)n1C(c1ccccc1)c1ccccc1`, the T/C was 89 % of control (endpoint: mean survival time, dose: 22.0 mg/kg/injection, schedule: Q01DX015 (ip), vehicle: carboxymethylcellulose (CMC)); 97 % of control (endpoint: mean survival time, dose: 33.0 mg/kg/injection, schedule: Q01DX015 (ip), vehicle: carboxymethylcellulose (CMC)); 97 % of control and 101 % of control (endpoint: mean survival time, dose: 44.0 mg/kg/injection, schedule: Q01DX001 (ip), vehicle: carboxymethylcellulose (CMC)); 95 % of control (endpoint: mean survival time, dose: 50.0 mg/kg/injection, schedule: Q01DX015 (ip), vehicle: carboxymethylcellulose (CMC)); 94 % of control and 98 % of control (endpoint: mean survival time, dose: 66.0 mg/kg/injection, schedule: Q01DX001 (ip), vehicle: carboxymethylcellulose (CMC)); 97 % of control (endpoint: mean survival time, dose: 75.0 mg/kg/injection, schedule: Q01DX015 (ip), vehicle: carboxymethylcellulose (CMC)). Moreover, the T/C was 95 % of control and 96 % of control (endpoint: mean survival time, dose: 150.0 mg/kg/injection, schedule: Q01DX001 (ip), vehicle: carboxymethylcellulose (CMC)); 154 % of control under setting [2]; 96 % of control under setting [3].

For the compound `CC(=O)Nc1nc(C)c(CCCNS(=O)(=O)c2ccc([N+](=O)[O-])cc2)c(=O)[nH]1`, the T/C was 90 % of control (endpoint: mean survival time, dose: 100.0 mg/kg/injection, schedule: Q01DX009 (ip), vehicle: gum acacia); 88 % of control (endpoint: mean survival time, dose: 200.0 mg/kg/injection, schedule: Q01DX009 (ip), vehicle: gum acacia); 87 % of control (endpoint: mean survival time, dose: 400.0 mg/kg/injection, schedule: Q01DX009 (ip), vehicle: gum acacia).

Take `N=C(CNC(=O)OCc1ccccc1)N1CCCC1C(=O)O` (configuration not stated): the T/C was 100 % of control under setting [13], 101 % of control under setting [15] and 101 % of control under setting [17].

Turning to `N#Cc1ccccc1.N#Cc1ccccc1.[Cl][Pd][Cl]`, the T/C runs as follows: under setting [11], 95 % of control; under setting [4], 95 % of control; under setting [5], 94 % of control; under setting [6], 101 % of control; under setting [7], 102 % of control.

As for `CNC(Cc1ccc(OCc2ccccc2)cc1)C(=O)NC(CO)CC(C)C` (configuration not stated), the T/C was 102 % of control under setting [13], 96 % of control under setting [15] and 105 % of control under setting [17].

As to `CC(=O)Nc1cc2c(cc1[N+](=O)[O-])-c1ccc(F)cc1C2=O`, the T/C is 100 % of control under setting [1], 96 % of control under setting [2] and 99 % of control under setting [3].

For the compound `CCN(CC)c1ccc2[nH]c3c(C(N)=O)cc(=O)c(=O)c=3oc2c1`, the T/C (endpoint: median survival time, dose: 12.5 mg/kg/injection, schedule: Q01DX009 (ip), vehicle: saline with Tween-80) is 101 % of control; the T/C (endpoint: median survival time, dose: 25.0 mg/kg/injection, schedule: Q01DX009 (ip), vehicle: saline with Tween-80) is 120 % of control; the T/C (endpoint: median survival time, dose: 50.0 mg/kg/injection, schedule: Q01DX009 (ip), vehicle: saline with Tween-80) is 113 % of control; the T/C (endpoint: median survival time, dose: 100.0 mg/kg/injection, schedule: Q01DX009 (ip), vehicle: saline with Tween-80) was 111 % of control; the T/C (endpoint: median survival time, dose: 200.0 mg/kg/injection, schedule: Q01DX009 (ip), vehicle: saline with Tween-80) was 98 % of control.

In the case of `CCOC(=O)c1ccc(NC(=O)Nc2cc(Cl)ccc2C)cc1`, the T/C by setting is: under setting [10], 103 % of control; under setting [11], 108 % of control; under setting [4], 87 % of control and 89 % of control; under setting [6], 98 % of control.

Turning to `O=[N+]([O-])CC(NNC(C[N+](=O)[O-])C(Cl)(Cl)Cl)C(Cl)(Cl)Cl` (configuration not stated), the T/C is, setting by setting: under setting [12], 96 % of control; under setting [13], 89 % of control; under setting [14], 91 % of control; under setting [15], 94 % of control; under setting [17], 90 % of control.

On to `N#CC(CC(=O)c1ccccc1)c1ccccc1` (configuration not stated), for which the T/C under setting [12] is 97 % of control, the T/C under setting [14] is 100 % of control and the T/C under setting [16] is 107 % of control.

With `Cc1ccc(Cl)cc1NC(=O)NCCCl`, the T/C was 113 % of control under setting [5] and 93 % of control under setting [7].

For the compound `O=C(Nc1ccc(S(=O)(=O)O)c2ccccc12)c1ccc(C(=O)Nc2ccc(S(=O)(=O)O)c3ccccc23)cc1`, the T/C runs as follows: (endpoint: mean survival time, dose: 62.5 mg/kg/injection, schedule: Q01DX Z (ip), vehicle: carboxymethylcellulose (CMC)) 92 % of control; (endpoint: mean survival time, dose: 125.0 mg/kg/injection, schedule: Q01DX Z (ip), vehicle: carboxymethylcellulose (CMC)) 89 % of control; (endpoint: mean survival time, dose: 250.0 mg/kg/injection, schedule: Q01DX Z (ip), vehicle: carboxymethylcellulose (CMC)) 90 % of control; (endpoint: mean survival time, dose: 500.0 mg/kg/injection, schedule: Q01DX Z (ip), vehicle: carboxymethylcellulose (CMC)) 89 % of control.

Take `COc1cc(C=Nc2ccccc2)ccc1OC(=O)c1ccccc1`: the T/C was 103 % of control (endpoint: mean survival time, dose: 100.0 mg/kg/injection, schedule: Q04DX002 (ip), vehicle: gum acacia); 95 % of control (endpoint: mean survival time, dose: 200.0 mg/kg/injection, schedule: Q04DX002 (ip), vehicle: gum acacia); 88 % of control (endpoint: mean survival time, dose: 400.0 mg/kg/injection, schedule: Q04DX002 (ip), vehicle: gum acacia).

As to `C(=N\Nc1nc2ccccc2s1)/c1ccc2ccccc2n1`, the T/C runs as follows: under setting [4], 96 % of control; under setting [6], 96 % of control.

Turning to `CO/C(Cc1cc(O)cc(O)c1)=N\N`, the T/C by setting is: under setting [13], 93 % of control; under setting [15], 92 % of control; under setting [17], 101 % of control.
